# According to article PMC6810216, “Human-to-Human Transmission of Influenza A(H3N2) Virus with Reduced Susceptibility to Baloxavir, Japan, February 2019” (Emerging Infectious Diseases, 2019):
# Experiments:
# [1] = test system: A/Kanagawa/IC18141/2019, influenza A(H3N2) virus carrying polymerase acidic I38T substitution; assay type: cell-based
# [2] = test system: mutant influenza A(H3N2) viruses encoding the polymerase acidic I38T substitution; settings: human, in vivo
# [3] = target: neuraminidase (NA) of A/Kanagawa/IC18141/2019 (Influenza A virus (H3N2), UniProt A0A193ACB1); assay type: biochemical
Compound,IC50 [1] [nM],fold higher IC50 value compared with the median IC50 of A(H3N2) viruses of the 2018–19 season [1] [fold],time to fever resolution after administration [2],IC50 [3] [nM],NA inhibitor susceptibility by WHO criteria (fold change in IC50 vs median of same-season isolates) [3]
"O=C1c2c(O)c(=O)ccn2N([C@@H]2c3ccccc3SCc3c2ccc(F)c3F)[C@@H]2COCCN12 [Baloxavir, baloxavir acid]",236,186,within a half day,–,–
"CCC(CC)[C@H](NC(C)=O)[C@@H]1[C@H](O)[C@@H](C(=O)O)C[C@H]1N=C(N)N [Peramivir, peramivir]",–,–,–,0.18,0.18 (NI) (key: NI: normal (<10-fold increase); reduced (10–100-fold increase); highly reduced (>100-fold increase))
